{
  "source": "patent US20110064750A1",
  "about": "“METHOD AND KIT FOR TREATING NICOTINE ADDICTION” (Nabi Biopharmaceuticals, priority 2009, published 2011)",
  "origin": "cited, not measured here",
  "key": {"smoking abstinence [1]": {"tested_on": "smoking abstinence", "conditions": "12 week course, varenicline 1.0 mg bid, bupropion 150 mg SR bid, carbon-monoxide confirmed"}, "smoking abstinence [2]": {"tested_on": "smoking abstinence"}, "[3]": {"molecular_target": "α3β2 nicotinic acetylcholine receptors (Homo sapiens, UniProt P17787+P32297)", "sequence (P32297 32-505)": "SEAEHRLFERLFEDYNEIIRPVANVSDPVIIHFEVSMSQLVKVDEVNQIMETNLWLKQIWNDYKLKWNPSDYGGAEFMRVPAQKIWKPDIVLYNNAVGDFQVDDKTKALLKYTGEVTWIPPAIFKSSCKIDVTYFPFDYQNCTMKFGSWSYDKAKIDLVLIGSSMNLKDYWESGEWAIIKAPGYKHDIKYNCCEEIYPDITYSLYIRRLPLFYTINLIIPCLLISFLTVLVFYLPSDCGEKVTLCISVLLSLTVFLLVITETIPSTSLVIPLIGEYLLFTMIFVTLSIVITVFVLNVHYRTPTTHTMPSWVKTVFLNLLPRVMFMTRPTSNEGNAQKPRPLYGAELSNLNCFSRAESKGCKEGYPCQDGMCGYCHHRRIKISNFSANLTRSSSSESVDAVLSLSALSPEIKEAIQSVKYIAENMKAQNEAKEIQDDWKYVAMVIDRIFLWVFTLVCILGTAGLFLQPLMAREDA", "sequence (P17787 26-502)": "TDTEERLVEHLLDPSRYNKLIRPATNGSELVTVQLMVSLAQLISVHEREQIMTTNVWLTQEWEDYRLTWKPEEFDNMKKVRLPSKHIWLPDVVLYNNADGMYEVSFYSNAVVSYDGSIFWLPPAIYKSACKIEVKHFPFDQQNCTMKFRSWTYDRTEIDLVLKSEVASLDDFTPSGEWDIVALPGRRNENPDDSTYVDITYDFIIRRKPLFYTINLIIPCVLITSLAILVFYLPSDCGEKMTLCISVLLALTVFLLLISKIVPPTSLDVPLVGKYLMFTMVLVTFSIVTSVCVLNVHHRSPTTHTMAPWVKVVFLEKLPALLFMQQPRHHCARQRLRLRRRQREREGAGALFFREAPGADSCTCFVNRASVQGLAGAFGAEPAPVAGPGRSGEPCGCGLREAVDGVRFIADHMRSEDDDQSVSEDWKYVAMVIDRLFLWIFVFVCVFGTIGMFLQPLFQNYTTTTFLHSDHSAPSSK", "conditions": "blocking nicotine activation of nAChRs"}, "[4]": {"molecular_target": "α4β2 nicotinic acetylcholine receptors (Homo sapiens, UniProt P17787+P43681)", "sequence (P43681 29-627 limits assumed)": "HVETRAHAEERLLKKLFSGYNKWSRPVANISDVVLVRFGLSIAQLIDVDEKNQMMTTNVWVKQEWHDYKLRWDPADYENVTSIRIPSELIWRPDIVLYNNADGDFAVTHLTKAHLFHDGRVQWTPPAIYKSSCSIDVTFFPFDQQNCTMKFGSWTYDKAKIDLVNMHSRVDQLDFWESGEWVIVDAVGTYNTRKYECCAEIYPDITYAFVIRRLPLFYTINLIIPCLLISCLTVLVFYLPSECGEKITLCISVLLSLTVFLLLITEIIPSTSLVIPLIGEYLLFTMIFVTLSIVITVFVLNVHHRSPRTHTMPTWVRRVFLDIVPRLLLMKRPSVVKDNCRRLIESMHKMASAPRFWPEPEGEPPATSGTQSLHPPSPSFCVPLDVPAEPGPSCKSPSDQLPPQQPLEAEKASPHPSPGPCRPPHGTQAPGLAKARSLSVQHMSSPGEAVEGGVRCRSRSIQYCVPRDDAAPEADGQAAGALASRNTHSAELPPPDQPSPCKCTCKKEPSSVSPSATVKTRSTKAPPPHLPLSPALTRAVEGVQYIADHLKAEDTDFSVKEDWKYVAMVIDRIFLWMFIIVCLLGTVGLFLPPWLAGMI", "sequence (P17787 26-502)": "as the sequence (P17787 26-502) above", "conditions": "blocking nicotine activation of nAChRs"}, "[5]": {"tested_on": "neuronal uptake of norepinephrine and dopamine"}, "smoking cessation": {"tested_on": "smoking cessation", "conditions": "for Time at which efficacy generally is apparent: previous studies"}, "[6]": {"conditions": "salt form, powder"}, "α4β2 nicotinic receptors": {"molecular_target": "α4β2 nicotinic receptors (Homo sapiens, UniProt P17787+P43681)", "sequence (P43681 29-627 limits assumed)": "as the sequence (P43681 29-627 limits assumed) above", "sequence (P17787 26-502)": "as the sequence (P17787 26-502) above", "conditions": "stimulating receptor-mediated activity at a significantly lower level than nicotine"}},
  "note": "Where two headings read alike, the source gives them in different places.",
  "data": [
    {"molecule": "CC(NC(C)(C)C)C(=O)c1cccc(Cl)c1.Cl", "note": "(stereo not shown) [Bupropion, Bupropion hydrochloride]", "values": [
      {"measurement": "Continuous Abstinence Rate (Wks 9-12)", "setting": "smoking abstinence [1]; Study A", "value": 16, "unit": "%"},
      {"measurement": "Continuous Abstinence Rate (Wks 9-12)", "setting": "smoking abstinence [1]; Study B", "value": 14, "unit": "%"},
      {"measurement": "Abstinence from week 4 through Week 7 (4-week quit)", "setting": "smoking abstinence [2]; 100 mg/day", "value": 22, "unit": "%"},
      {"measurement": "Abstinence from week 4 through Week 12", "setting": "smoking abstinence [2]; 100 mg/day", "value": 20, "unit": "%"},
      {"measurement": "Abstinence from week 4 through Week 26", "setting": "smoking abstinence [2]; 100 mg/day", "value": 16, "unit": "%"},
      {"measurement": "Abstinence from week 4 through Week 7 (4-week quit)", "setting": "smoking abstinence [2]; 150 mg/day", "value": 27, "unit": "%"},
      {"measurement": "Abstinence from week 4 through Week 12", "setting": "smoking abstinence [2]; 150 mg/day", "value": 20, "unit": "%"},
      {"measurement": "Abstinence from week 4 through Week 26", "setting": "smoking abstinence [2]; 150 mg/day", "value": 18, "unit": "%"},
      {"measurement": "Abstinence from week 4 through Week 7 (4-week quit)", "setting": "smoking abstinence [2]; 300 mg/day", "value": 36, "unit": "%"},
      {"measurement": "Abstinence from week 4 through Week 12", "setting": "smoking abstinence [2]; 300 mg/day", "value": 25, "unit": "%"},
      {"measurement": "Abstinence from week 4 through Week 26", "setting": "smoking abstinence [2]; 300 mg/day", "value": 19, "unit": "%"},
      {"measurement": "Times more effective in blocking α3β2 than α7", "setting": "[3]", "value": 50, "unit": "times"},
      {"measurement": "Times more effective in blocking α4β2 than α7", "setting": "[4]", "value": 12, "unit": "times"},
      {"measurement": "Inhibition of the neuronal uptake of norepinephrine and dopamine", "setting": "[5]", "value": "relatively weak inhibitor"},
      {"measurement": "Inhibition of monoamine oxidase", "setting": "monoamine oxidase", "value": "does not inhibit"},
      {"measurement": "Time at which efficacy may diminish", "setting": "smoking cessation; even though administration is ongoing", "value": "after about six or seven weeks"},
      {"measurement": "Chances of quitting smoking compared with placebo", "setting": "smoking cessation; in vivo", "value": "double"},
      {"measurement": "Nicotine craving and nicotine withdrawal symptoms", "setting": "smoking cessation; in vivo", "value": "lower"},
      {"measurement": "Time at which efficacy generally is apparent", "setting": "smoking cessation", "value": "one week after the first dose"},
      {"measurement": "Solubility in water", "setting": "[6]", "value": "highly soluble in water"}
    ]},
    {"molecule": "c1cnc2cc3c(cc2n1)[C@@H]1CNC[C@H]3C1", "note": "[Varenicline, 7,8,9,10-tetrahydro-6,10-methano-6H-pyrazino[2,3-h][3]benzazpine, (2R,3R)-2,3-dihydroxybutanedioate(1:1)]", "values": [
      {"measurement": "Continuous Abstinence Rate (Wks 9-12)", "setting": "smoking abstinence [1]; Study A", "value": 21, "unit": "%"},
      {"measurement": "Continuous Abstinence Rate (Wks 9-12)", "setting": "smoking abstinence [1]; Study B", "value": 22, "unit": "%"},
      {"measurement": "Agonist activity at α4β2 nicotinic receptors", "setting": "α4β2 nicotinic receptors", "value": "low level agonist"},
      {"measurement": "Time at which efficacy generally is apparent", "setting": "smoking cessation", "value": "one week after the first dose"},
      {"measurement": "Solubility in water", "setting": "[6]", "value": "highly soluble in water"}
    ]}
  ]
}
